Measured values reported in patent publication US10870647B2, “Imidazopyridine derivative, method for preparing same, and pharmaceutical composition containing same as active ingredient for preventing or treating cancer” (DAEGU-GYEONGBUK MEDICAL INNOVATION FOUNDATION, priority 2016, dated 2020).
Read-outs that look alike come from different tables or passages of the source.

Columns and labels:
Assay in all cases: Kinase selectivity, scanMAX Kinase assay panel (DiscoverX), % control at 1 uM
Assay type in all cases: binding
[1] = target: T1, scanMAX Kinase assay panel (Homo sapiens, UniProt Q8TDR2); conditions: STK35; 1 uM; read-out: Percent Control (%)
T1 construct: purchased DiscoverX
Summary of the method: (§1)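 Each kinase was first exposed to the test compound at 1 uM in DMSO. Signal was then normalised to positive and negative controls to give % control. Finally, any enzyme showing <35% control was judged inhibited.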

[2] = target: T2, scanMAX Kinase assay panel (Homo sapiens, UniProt P10721); conditions: 1 uM, read-out: Percent Control (%)
T2 construct: purchased DiscoverX
Summary of the method: as §1

[3] = target: T3, scanMAX Kinase assay panel (Homo sapiens, UniProt P42336, M1043I); conditions: PIK3CA (M1043I); 1 uM; read-out: Percent Control (%)
T3 construct: purchased DiscoverX
Summary of the method: as §1

[4] = target: T4, scanMAX Kinase assay panel (Homo sapiens, UniProt Q9HBH9); conditions: MKNK2; 1 uM; read-out: Percent Control (%)
T4 construct: purchased DiscoverX
Summary of the method: as §1

[5] = target: T5, scanMAX Kinase assay panel (Homo sapiens, UniProt Q06418); conditions: TYRO3; 1 uM; read-out: Percent Control (%)
T5 construct: purchased DiscoverX
T5 sequence (Q06418 41-890): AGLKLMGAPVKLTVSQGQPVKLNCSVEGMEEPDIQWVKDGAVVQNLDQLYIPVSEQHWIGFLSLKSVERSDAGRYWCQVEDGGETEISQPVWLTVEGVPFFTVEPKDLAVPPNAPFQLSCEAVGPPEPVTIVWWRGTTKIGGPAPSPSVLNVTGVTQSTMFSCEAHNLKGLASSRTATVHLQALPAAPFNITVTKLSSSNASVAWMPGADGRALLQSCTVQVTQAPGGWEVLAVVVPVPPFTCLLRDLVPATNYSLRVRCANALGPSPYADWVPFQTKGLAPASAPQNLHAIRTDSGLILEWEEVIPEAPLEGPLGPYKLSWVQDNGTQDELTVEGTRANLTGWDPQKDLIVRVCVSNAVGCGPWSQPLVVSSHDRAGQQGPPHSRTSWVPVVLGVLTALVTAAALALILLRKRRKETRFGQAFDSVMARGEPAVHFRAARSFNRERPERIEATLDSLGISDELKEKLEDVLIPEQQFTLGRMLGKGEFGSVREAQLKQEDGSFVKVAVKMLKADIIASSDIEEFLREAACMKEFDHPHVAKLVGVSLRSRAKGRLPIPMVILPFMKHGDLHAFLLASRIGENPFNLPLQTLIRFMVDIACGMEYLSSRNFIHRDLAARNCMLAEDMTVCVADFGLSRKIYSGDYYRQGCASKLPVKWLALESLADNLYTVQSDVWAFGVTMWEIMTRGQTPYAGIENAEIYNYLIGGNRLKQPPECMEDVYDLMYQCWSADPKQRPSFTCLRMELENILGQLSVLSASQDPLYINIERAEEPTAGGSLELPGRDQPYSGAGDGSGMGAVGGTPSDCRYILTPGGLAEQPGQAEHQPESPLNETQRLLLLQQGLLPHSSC
Summary of the method: as §1

[6] = target: T6, scanMAX Kinase assay panel (Homo sapiens, UniProt P51813); conditions: BMX; 1 uM; read-out: Percent Control (%)
T6 construct: purchased DiscoverX
T6 sequence (P51813 1-675): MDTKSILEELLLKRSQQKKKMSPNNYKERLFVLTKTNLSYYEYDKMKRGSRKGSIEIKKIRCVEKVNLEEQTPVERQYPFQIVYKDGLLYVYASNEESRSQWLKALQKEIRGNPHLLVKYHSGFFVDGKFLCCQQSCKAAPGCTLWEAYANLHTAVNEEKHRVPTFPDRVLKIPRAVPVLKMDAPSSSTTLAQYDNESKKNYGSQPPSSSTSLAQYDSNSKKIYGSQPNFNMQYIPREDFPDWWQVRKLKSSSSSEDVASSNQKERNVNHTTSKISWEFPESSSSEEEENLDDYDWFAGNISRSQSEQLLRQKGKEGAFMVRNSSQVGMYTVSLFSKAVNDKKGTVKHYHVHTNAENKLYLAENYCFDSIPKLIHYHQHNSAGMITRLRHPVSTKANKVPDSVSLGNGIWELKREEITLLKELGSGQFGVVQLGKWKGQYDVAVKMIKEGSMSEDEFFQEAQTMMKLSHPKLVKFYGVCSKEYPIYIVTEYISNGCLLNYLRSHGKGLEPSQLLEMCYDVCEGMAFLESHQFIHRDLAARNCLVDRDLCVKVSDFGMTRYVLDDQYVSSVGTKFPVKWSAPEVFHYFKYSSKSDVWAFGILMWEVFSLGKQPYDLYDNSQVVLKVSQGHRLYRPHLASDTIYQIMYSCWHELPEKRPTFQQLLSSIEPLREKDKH
Summary of the method: as §1

T3 sequence (P42336 whole entry M1043I): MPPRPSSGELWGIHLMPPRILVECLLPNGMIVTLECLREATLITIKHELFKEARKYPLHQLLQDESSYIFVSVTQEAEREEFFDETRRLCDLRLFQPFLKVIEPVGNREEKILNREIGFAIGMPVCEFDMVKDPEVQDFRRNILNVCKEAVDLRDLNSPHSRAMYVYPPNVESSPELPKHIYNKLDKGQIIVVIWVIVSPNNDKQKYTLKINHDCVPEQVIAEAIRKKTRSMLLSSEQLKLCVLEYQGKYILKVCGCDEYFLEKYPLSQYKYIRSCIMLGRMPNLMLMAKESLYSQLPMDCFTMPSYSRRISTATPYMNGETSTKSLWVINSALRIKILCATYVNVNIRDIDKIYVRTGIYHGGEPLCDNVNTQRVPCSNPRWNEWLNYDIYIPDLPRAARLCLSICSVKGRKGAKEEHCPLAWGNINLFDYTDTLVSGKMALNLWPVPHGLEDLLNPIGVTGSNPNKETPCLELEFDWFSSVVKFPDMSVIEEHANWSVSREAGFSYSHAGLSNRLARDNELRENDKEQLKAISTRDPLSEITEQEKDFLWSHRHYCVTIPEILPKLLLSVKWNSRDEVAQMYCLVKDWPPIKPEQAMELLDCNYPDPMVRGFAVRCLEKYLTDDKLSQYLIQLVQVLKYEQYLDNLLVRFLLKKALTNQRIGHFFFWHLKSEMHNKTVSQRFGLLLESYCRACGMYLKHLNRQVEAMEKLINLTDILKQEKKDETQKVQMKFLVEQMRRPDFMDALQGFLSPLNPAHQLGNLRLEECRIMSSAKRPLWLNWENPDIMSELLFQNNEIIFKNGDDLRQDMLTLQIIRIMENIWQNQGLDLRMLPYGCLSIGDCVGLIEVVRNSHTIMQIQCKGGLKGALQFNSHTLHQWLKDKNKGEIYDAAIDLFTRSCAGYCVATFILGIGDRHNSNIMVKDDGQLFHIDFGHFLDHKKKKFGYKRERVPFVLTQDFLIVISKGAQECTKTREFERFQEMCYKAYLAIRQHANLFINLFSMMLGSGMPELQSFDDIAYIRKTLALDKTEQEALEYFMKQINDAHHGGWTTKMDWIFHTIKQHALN
T2 sequence (P10721 26-976): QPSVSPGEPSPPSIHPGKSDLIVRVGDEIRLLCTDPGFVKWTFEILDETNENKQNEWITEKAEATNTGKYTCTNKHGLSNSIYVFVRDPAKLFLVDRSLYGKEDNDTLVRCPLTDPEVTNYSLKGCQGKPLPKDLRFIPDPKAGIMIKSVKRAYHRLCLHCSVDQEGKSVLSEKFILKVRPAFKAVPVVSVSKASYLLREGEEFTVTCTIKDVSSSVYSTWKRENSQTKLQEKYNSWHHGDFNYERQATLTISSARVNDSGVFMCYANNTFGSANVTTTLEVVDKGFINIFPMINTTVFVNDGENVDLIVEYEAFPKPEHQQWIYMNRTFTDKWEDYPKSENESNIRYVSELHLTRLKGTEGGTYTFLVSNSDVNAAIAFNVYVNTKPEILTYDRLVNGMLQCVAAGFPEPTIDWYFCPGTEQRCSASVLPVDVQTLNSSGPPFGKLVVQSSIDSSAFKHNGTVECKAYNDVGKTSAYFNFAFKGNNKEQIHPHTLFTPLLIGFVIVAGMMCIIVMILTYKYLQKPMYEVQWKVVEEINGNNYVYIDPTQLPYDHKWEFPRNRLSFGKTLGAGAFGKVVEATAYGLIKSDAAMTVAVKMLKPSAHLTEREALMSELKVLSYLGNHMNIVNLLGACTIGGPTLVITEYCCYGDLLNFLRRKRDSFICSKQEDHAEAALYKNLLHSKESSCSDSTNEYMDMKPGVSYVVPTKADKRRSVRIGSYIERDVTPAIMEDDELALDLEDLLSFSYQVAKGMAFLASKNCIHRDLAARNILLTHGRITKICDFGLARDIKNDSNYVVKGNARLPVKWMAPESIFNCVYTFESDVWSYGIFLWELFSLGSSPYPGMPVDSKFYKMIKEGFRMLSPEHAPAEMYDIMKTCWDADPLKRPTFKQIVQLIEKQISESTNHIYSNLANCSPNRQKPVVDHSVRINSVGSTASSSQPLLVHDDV
T1 sequence (Q8TDR2 whole entry): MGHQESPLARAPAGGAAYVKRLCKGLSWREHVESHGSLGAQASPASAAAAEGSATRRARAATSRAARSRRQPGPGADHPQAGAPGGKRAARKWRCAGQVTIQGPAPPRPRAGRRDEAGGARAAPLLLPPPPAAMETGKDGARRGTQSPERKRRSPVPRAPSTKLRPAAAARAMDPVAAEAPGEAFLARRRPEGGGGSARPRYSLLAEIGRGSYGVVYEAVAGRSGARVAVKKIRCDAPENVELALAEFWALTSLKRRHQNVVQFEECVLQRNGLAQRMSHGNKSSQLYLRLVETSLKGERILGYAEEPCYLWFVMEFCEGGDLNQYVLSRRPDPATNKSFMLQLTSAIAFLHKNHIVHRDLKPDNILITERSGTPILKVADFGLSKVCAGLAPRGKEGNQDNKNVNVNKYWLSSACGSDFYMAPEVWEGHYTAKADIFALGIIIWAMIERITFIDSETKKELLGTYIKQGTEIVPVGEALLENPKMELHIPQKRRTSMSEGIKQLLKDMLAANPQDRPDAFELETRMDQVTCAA
T4 sequence (Q9HBH9 whole entry): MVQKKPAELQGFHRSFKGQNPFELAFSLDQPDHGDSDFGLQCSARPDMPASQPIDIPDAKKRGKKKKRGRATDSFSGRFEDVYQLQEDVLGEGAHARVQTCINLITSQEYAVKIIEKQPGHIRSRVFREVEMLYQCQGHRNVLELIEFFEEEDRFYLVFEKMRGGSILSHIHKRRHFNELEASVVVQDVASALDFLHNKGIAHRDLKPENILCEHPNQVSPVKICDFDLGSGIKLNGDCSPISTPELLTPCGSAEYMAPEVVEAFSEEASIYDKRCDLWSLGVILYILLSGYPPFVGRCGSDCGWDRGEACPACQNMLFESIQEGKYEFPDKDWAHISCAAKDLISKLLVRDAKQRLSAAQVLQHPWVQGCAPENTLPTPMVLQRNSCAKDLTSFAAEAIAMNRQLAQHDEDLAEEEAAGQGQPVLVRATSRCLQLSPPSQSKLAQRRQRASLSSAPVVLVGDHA

`Cc1ccc(C(=O)Nc2ccc(CN3CCN(C)CC3)c(C(F)(F)F)c2)cc1C#Cc1cnc2c(Nc3cnn(C)c3)cccn12` [Example 1, 4-methyl-3-((8-((1-methyl-1H-pyrazol-4-yl)amino)imidazo[1,2-a]pyridin-3-yl)ethynyl)-N-(4-((4-methylpiperazin-1-yl)methyl)-3-(trifluoromethyl)phenyl)benzamide] was tested, and the remaining binding at 1 µM [1] was 33%, the remaining binding at 1 µM ([2]; KIT-autoinhibited) was 77% and the remaining binding at 1 µM ([2]; KIT) was 0%. The remaining binding at 1 µM [3] was 90%, the remaining binding at 1 µM [4] was 2% and the remaining binding at 1 µM [5] was 21%. The remaining binding at 1 µM [6] was 3%.
`Cc1cn(-c2cc(NC(=O)c3ccc(C)c(C#Cc4cnc5c(Nc6cnn(C)c6)cccn45)c3)cc(C(F)(F)F)c2)cn1` [Example 12, 4-methyl-N-(3-(4-methyl-1H-imidazol-1-yl)-5-(trifluoromethyl)phenyl)-3-((8-((1-methyl-1H-pyrazol-4-yl)amino)imidazo[1,2-a]pyridin-3-yl)ethynyl)benzamide] gave a remaining binding at 1 µM [1] of 58%, a remaining binding at 1 µM ([2]; KIT-autoinhibited) of 98% and a remaining binding at 1 µM ([2]; KIT) of 1%. For the same molecule, the remaining binding at 1 µM [3] was 100%, the remaining binding at 1 µM [4] was 78% and the remaining binding at 1 µM [5] was 42%. It also gave a remaining binding at 1 µM [6] of 9%.
`Cc1ccc(NC(=O)C2(C(=O)Nc3ccc(F)cc3)CC2)cc1C#Cc1cnc2c(Nc3cnn(C(C)C)c3)cccn12` [Example 78] showed a remaining binding at 1 µM [1] of 100%, a remaining binding at 1 µM ([2]; KIT-autoinhibited) of 93% and a remaining binding at 1 µM ([2]; KIT) of 0%. It also gave a remaining binding at 1 µM [3] of 100%, a remaining binding at 1 µM [4] of 100% and a remaining binding at 1 µM [5] of 95%. The remaining binding at 1 µM [6] was 96%.
